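Results reflect a 48-hour exposure of cells in 96-well plates to compound at five concentrations. GI50: concentration for 50% inhibition of growth. The concentration for full growth arrest is given as TGI.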
Test system: MDA-MB-468 breast
Assay: NCI tumour cell line growth inhibition, 48 h

Structure (SMILES)	GI50	TGI
Cc1cc(F)ccc1S(=O)(=O)Nc1cc(-c2c(O)ccc3ccccc23)c(O)c2ccccc12	1.65 µM	3.7 µM
CN(C)CCN1C(=O)c2c(c3c4ccccc4n4c3c3c2c2ccccc2n3C2CC(O)C(O)C4(C)O2)C1=O (centres undefined)	1.52 µM	5.65 µM
O=C1OCC2=C1C(c1cccc(Cl)c1)c1cc3c(cc1N2CCO)OCCO3 (centres undefined)	0.0265 µM	0.516 µM
CC1=C(c2cccc(O)c2)[C@H](c2ccc(OCCN3CC(CF)C3)cc2)Oc2ccc(O)cc21	2.4 µM	6.24 µM
Cc1ccccc1OCC(O)CN1CCN(c2ccc(Cl)cc2)CC1 (centres undefined)	17.4 µM	35.4 µM
O=C(Nc1ccc(Cl)cc1)Nc1nc2ccc([N+](=O)[O-])cc2s1	0.862 µM	2.38 µM
O=C1C(Nc2ccc(Cl)cc2)=C(I)C(=O)c2ncccc21	1.51 µM	3.82 µM
Cc1c(Cl)cccc1C(=O)Nc1nc2c(s1)CN(C(=O)c1ccc(C(F)(F)F)cc1)CC2	0.0365 µM	> 35.7 µM
O=C(Nc1cccc(-n2cc(-c3ccncc3)c(-c3ccc(Cl)c(O)c3)n2)c1)Nc1cc(C(F)(F)F)cc(C(F)(F)F)c1	0.264 µM	2.65 µM
COc1cccc(-c2c[nH]c3c(N/N=C/c4ccncc4)ncnc23)c1	0.848 µM	3.89 µM
CN1CCN(C(=O)C(C)(C)c2ccc(C(=O)Nc3cn4cc(-c5ccncc5)ccc4n3)cc2)CC1	0.162 µM	1.18 µM
C#CC#CC#CC#CC#CC#CC#CC#CCC1OCC(COC(=O)O[C@@H](C(=O)O[C@H]2C[C@@]3(O)[C@@H](OC(=O)c4ccccc4)[C@@H]4[C@]5(OC(C)=O)CO[C@@H]5C[C@H](O)[C@@]4(C)C(=O)[C@H](OC(C)=O)C(=C2C)C3(C)C)[C@@H](NC(=O)c2ccccc2)c2ccccc2)O1 (some centres undefined)	0.067 µM	0.423 µM
[Cl][Sn]([c]1ccccc1)([c]1ccccc1)[c]1ccccc1	0.137 µM	0.326 µM
COc1ccc(CCN2CC=Cn3c2nc2ccccc2c3=O)cc1	0.0816 µM	11.8 µM
Cc1ccc(S(=O)(=O)c2c(COC(=O)c3cccc(C)c3)c(-c3ccccc3)nn2C)cc1	> 100 µM	> 100 µM
O=C(N/N=C/C=C/c1ccc([N+](=O)[O-])o1)c1cc2ccccc2cc1O	1.36 µM	3.22 µM
Nc1ncnc2c1N=C(c1ccc3c(c1)OCO3)CC(c1ccc([N+](=O)[O-])cc1)N2 (centres undefined)	25.2 µM	60.4 µM
C=C(C)[C@@H]1CC[C@]2(C(=O)N[C@H](CO)Cc3ccccc3)CC[C@]3(C)[C@H](CC[C@@H]4[C@@]5(C)CCCNC(C)(C)[C@@H]5CC[C@]43C)[C@@H]12	1.52 µM	3.03 µM
Cc1cc(NCCCN(C)C)c2ccc3c(ccc4c(NCCCN(C)C)cc(C)nc43)c2n1	0.153 µM	0.312 µM
O=C(Nc1ccc(Br)cc1F)c1cc(I)ccc1O	2.17 µM	6.22 µM
COc1cc(C(=O)c2c(-c3ccccc3)oc3c(OC)cccc23)cc(OC)c1OC	0.0839 µM	11.1 µM
Cn1ncnc1[C@H]1c2n[nH]c(=O)c3cc(F)cc(c23)N[C@@H]1c1ccc(F)cc1	1.42 µM	> 100 µM
